From article PMC5940854, “Nitrothiophene carboxamides, a novel narrow spectrum antibacterial series: Mechanism of action and Efficacy” (Scientific Reports, 2018)
Values after ≈ are worked out from the molar mass of the structure shown.

Columns and labels:
NfsA = biological target: T1, NfsA (Escherichia coli, UniProt P17117); assay: Nitroreductase activity assay, NfsA; format: biochemical, E. coli; conditions: 20 μM compound, 40 μM NADPH, 10 nM NfsA; slope of initial velocity
T1 construct: His-tag; made in house; host or cells: E. coli BL21(DE3), pET28a (pET-nfsA)
Description: Enzyme reducing each of the substrates are measured by monitoring the concomitant oxidation of NADPH by NfsA and NADH by NfsB in a fluorescence based assay. The reduction in fluorescence due to the NADH oxidation (excitation 350 nm, emission 460 nm) and NADPH oxidation (excitation 340 nm, emission 485 nm) is recorded using a TECAN Infinite M200Pro spectrophotometer, in half area solid black microtiter plates. This change in fluorescence directly corelates to the reduction of the nitro-compounds in the reaction. The NfsA assays is performed by initiating the reactions with 40 μM NADPH and 10 nM NfsA in 50 mM Tris-HCl (pH 7.4), 5 mM EDTA against 20 μM substrate (5 μl of compounds/substrate dissolved in 100% DMSO) in a total reaction volume of 100 μl at 25 °C. Similarly, the NfsB assay is also performed by initiating the reactions with 40 μM NADH and 70 nM NfsB in 50 mM Tris-HCl (pH 7.4), 5 mM EDTA against 20 μM substrate in a total reaction volume of 100 μl. […] All reactions are performed in replicates of two or more and the fluorescence measurements are made at 10 second intervals for 5–10 minutes.
Low solubility of the compounds/substrates under the NfsA and NfsB assay conditions precluded determination of their Km. […] The relative fluorescence units (RFU) obtained due to NADPH (excitation 340 nm, emission 485 nm) or NADH (excitation 350 nm, emission 460 nm) oxidation of the first 90 sec reaction is used to compute the slopes using linear regression analysis on GraphPad Prism. Appropriate blank reactions are included to account for background fluorescence/quenching from each of the components such as DMSO, the compound itself and auto-oxidation of NADPH or NADH. Activity of NfsB with a known substrate such as nitrofurantoin is used as a benchmark to plot the relative activities with all the test compounds.

[1] = system: E. coli clinical isolates; assay: MIC on panel of E. coli clinical isolates; format: cell-based
E. coli ∆nfsA + ∆nfsB = assay: microbe, parasite or virus in culture; format: cell-based
Description: (§1) To assess the biological relevance of the interacting protein and establish the link between nitroreductases to the antibacterial activity of NTC compounds, single (ΔnfsA or ΔnfsB) and double knockouts (ΔnfsA & ΔnfsB) of nitroreductases were generated by phage transduction using strains from the Keio collection.
(§2) The inoculum used for all the experiments is derived from a single seed lot that is maintained as glycerol stocks at −80 °C and are sub cultured on LB plate for isolated colonies. Single colony of each strain is grown in M9 medium. All test compound stocks and dilutions are prepared in DMSO. Serial two-fold dilutions of compounds are prepared separately, with the concentrations ranging from 2 mg/mL to 0.015 mg/mL. To 150 µl (3–7 × 10^5 CFU/ml) of bacterial culture in 96 well microtitre plates, 3 μL compound from each of the dilutions is added to respective wells to obtain final concentrations ranging from 40 µg/mL to 0.3 µg/mL of the test compounds. Media control, culture control and appropriate reference drug controls are included. […] Growth is monitored by checking absorbance at 600 nm (A600). […] The samples from MIC and above concentrations are plated for MBC (Minimum Bactericidal Concentration). The samples are diluted 1:10 and plated on LB agar plates. […] The killing kinetics is determined by enumerating survivors at various time points following compound exposure. E. coli cells (~10^7 CFU/ml; A600 of 0.1) are treated with various concentrations (40 µg/mL to 0.3 µg/mL) of compounds in a 96-well microtitre plate. At various time intervals (0 to 8 h), 30 μl volumes of treated cultures are serially diluted and plated on LB agar plates. […] Data is expressed as the log10 CFU for each drug treatment.

E. coli ∆nfsA = assay: microbe, parasite or virus in culture; format: cell-based; conditions: Escherichia coli, read-out: MIC ∆nfsA
Description: as §1, §2

T1 sequence (P17117 whole entry): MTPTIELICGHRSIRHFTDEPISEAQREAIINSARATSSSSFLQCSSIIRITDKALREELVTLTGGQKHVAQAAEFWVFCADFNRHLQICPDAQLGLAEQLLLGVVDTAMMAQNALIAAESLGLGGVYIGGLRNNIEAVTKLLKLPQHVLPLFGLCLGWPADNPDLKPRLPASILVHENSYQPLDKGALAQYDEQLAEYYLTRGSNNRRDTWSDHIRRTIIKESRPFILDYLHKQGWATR

O=C1CN(/N=C/c2ccc([N+](=O)[O-])o2)C(=O)N1 [nitrofurantoin, reference compound]
NfsA activity (rate of compound conversion) (NfsA): 3.58 µM/min
MIC Range ([1]; 75 E.coli clinical isolates): 5 to 160 µg/mL
MIC50 ([1]; Escherichia coli, 75 E.coli clinical isolates, 50% clinical isolates): 20 µg/mL (≈ 84 µM)
MIC90 ([1]; Escherichia coli, 75 E.coli clinical isolates, 90% clinical isolates): 80 µg/mL (≈ 336 µM)
MIC ([1]; strain SEC001): 80 µg/mL (≈ 336 µM)
MIC ([1]; strain SEC002): 20 µg/mL (≈ 84 µM)
MIC ([1]; strain SEC003): 40 µg/mL (≈ 168 µM)
MIC ([1]; strain SEC004): 80 µg/mL (≈ 336 µM)
MIC ([1]; strain SEC005): 40 µg/mL (≈ 168 µM)
MIC ([1]; strain SEC006): 20 µg/mL (≈ 84 µM)
MIC ([1]; strain SEC007): 40 µg/mL (≈ 168 µM)
MIC ([1]; strain SEC008): 80 µg/mL (≈ 336 µM)
MIC ([1]; strain SEC011): 40 µg/mL (≈ 168 µM)
MIC ([1]; strain SEC012): 20 µg/mL (≈ 84 µM)
MIC ([1]; strain SEC013): 80 µg/mL (≈ 336 µM)
MIC ([1]; strain SEC014): 20 µg/mL (≈ 84 µM)
MIC ([1]; strain SEC015): 20 µg/mL (≈ 84 µM)
MIC ([1]; strain SEC016): 40 µg/mL (≈ 168 µM)
MIC ([1]; strain SEC017): 20 µg/mL (≈ 84 µM)
MIC ([1]; strain SEC018): 20 µg/mL (≈ 84 µM)
MIC ([1]; strain SEC019): 40 µg/mL (≈ 168 µM)
MIC ([1]; strain SEC020): 160 µg/mL (≈ 672 µM)
MIC ([1]; strain SEC021): 20 µg/mL (≈ 84 µM)
MIC ([1]; strain SEC022): 20 µg/mL (≈ 84 µM)
MIC ([1]; strain SEC023): 80 µg/mL (≈ 336 µM)
MIC ([1]; strain SEC024): 20 µg/mL (≈ 84 µM)
MIC ([1]; strain SEC025): 40 µg/mL (≈ 168 µM)
MIC ([1]; strain SEC026): 20 µg/mL (≈ 84 µM)
MIC ([1]; strain SEC028): 5 µg/mL (≈ 21 µM)
MIC ([1]; strain SEC029): 20 µg/mL (≈ 84 µM)
MIC ([1]; strain SEC031): 20 µg/mL (≈ 84 µM)
MIC ([1]; strain SEC032): 20 µg/mL (≈ 84 µM)
MIC ([1]; strain SEC033): 20 µg/mL (≈ 84 µM)
MIC ([1]; strain SEC034): 20 µg/mL (≈ 84 µM)
MIC ([1]; strain SEC035): 40 µg/mL (≈ 168 µM)
MIC ([1]; strain SEC036): 40 µg/mL (≈ 168 µM)
MIC ([1]; strain SEC037): 20 µg/mL (≈ 84 µM)
MIC ([1]; strain SEC038): 20 µg/mL (≈ 84 µM)
MIC ([1]; strain SEC039): 20 µg/mL (≈ 84 µM)
MIC ([1]; strain SEC040): 40 µg/mL (≈ 168 µM)
MIC ([1]; strain SEC041): 20 µg/mL (≈ 84 µM)
MIC ([1]; strain SEC042): 10 µg/mL (≈ 42 µM)
MIC ([1]; strain SEC043): 20 µg/mL (≈ 84 µM)
MIC ([1]; strain SEC044): 80 µg/mL (≈ 336 µM)
MIC ([1]; strain SEC045): 20 µg/mL (≈ 84 µM)
MIC ([1]; strain SEC046): 20 µg/mL (≈ 84 µM)
MIC ([1]; strain SEC047): 40 µg/mL (≈ 168 µM)
MIC ([1]; strain SEC048): 40 µg/mL (≈ 168 µM)
MIC ([1]; strain SEC049): 40 µg/mL (≈ 168 µM)
MIC ([1]; strain SEC050): 20 µg/mL (≈ 84 µM)
MIC ([1]; strain SEC051): 40 µg/mL (≈ 168 µM)
MIC ([1]; strain SEC052): 160 µg/mL (≈ 672 µM)
MIC ([1]; strain SEC053): 40 µg/mL (≈ 168 µM)
MIC ([1]; strain SEC054): 20 µg/mL (≈ 84 µM)
MIC ([1]; strain SEC055): 20 µg/mL (≈ 84 µM)
MIC ([1]; strain SEC057): 40 µg/mL (≈ 168 µM)
MIC ([1]; strain SEC058): 80 µg/mL (≈ 336 µM)
MIC ([1]; strain SEC059): 20 µg/mL (≈ 84 µM)
MIC ([1]; strain SEC060): 20 µg/mL (≈ 84 µM)
MIC ([1]; strain SEC061): 40 µg/mL (≈ 168 µM)
MIC ([1]; strain SEC062): 20 µg/mL (≈ 84 µM)
MIC ([1]; strain SEC063): 40 µg/mL (≈ 168 µM)
MIC ([1]; strain SEC064): 40 µg/mL (≈ 168 µM)
MIC ([1]; strain SEC065): 20 µg/mL (≈ 84 µM)
MIC ([1]; strain SEC067): 20 µg/mL (≈ 84 µM)
MIC ([1]; strain SEC068): 20 µg/mL (≈ 84 µM)
MIC ([1]; strain SEC069): 20 µg/mL (≈ 84 µM)
MIC ([1]; strain SEC070): 20 µg/mL (≈ 84 µM)
MIC ([1]; strain SEC071): 20 µg/mL (≈ 84 µM)
MIC ([1]; strain SEC072): 20 µg/mL (≈ 84 µM)
MIC ([1]; strain SEC073): 40 µg/mL (≈ 168 µM)
MIC ([1]; strain SEC074): 40 µg/mL (≈ 168 µM)
MIC ([1]; strain SEC075): 10 µg/mL (≈ 42 µM)
MIC ([1]; strain SEC076): 20 µg/mL (≈ 84 µM)
MIC ([1]; strain SEC077): 80 µg/mL (≈ 336 µM)
MIC ([1]; strain SEC078): 80 µg/mL (≈ 336 µM)
MIC ([1]; strain SEC079): 20 µg/mL (≈ 84 µM)
MIC ([1]; strain SEC080): 40 µg/mL (≈ 168 µM)
MIC (E. coli ∆nfsA + ∆nfsB; Escherichia coli, read-out: MIC ∆nfsA + ∆nfsB): 20 µg/mL
fold elevation of MIC in the double knockout (E. coli ∆nfsA + ∆nfsB; ∆nfsA & ∆nfsB vs WT): about 8 fold
MIC (E. coli ∆nfsA): 5 µg/mL (≈ 21 µM)
